Reference: publication PMC11504268 (Antibiotics, 2024)
Read-outs that look alike come from different tables or passages of the source.

Tests used:
[1] = Description: The estimation of parameters, including fixed and random effects, was conducted using first-order conditional estimation with the interaction method. This enables modelling of the interaction between the IIV in PK parameters and the residual variability (RV) in measured concentrations. […] Each model adhered to first-order kinetics, except the zero-order infusion processes. Each PK parameter in the model was described by the equation θi = θ × exp (ηi), where θ denotes the typical value of the PK parameter, θi is the individual PK parameter value for each participant, and ηi is a random variable encapsulating IIV. We hypothesised that IIV is normally distributed, with a mean of zero and variance ω^2. RV was modelled as normally distributed with a mean of zero and a variance σ^2. Additionally, we evaluated additive, proportional, and combined additive-proportional error models. The methods used to select and validate models encompassed several criteria: variations in NONMEM objective function values (OFVs), the accuracy of parameter estimates as reflected by relative standard errors, goodness-of-fit plots, VPC, and bootstrap evaluations. […] Model validation processes included the creation of conditional weighted residual plots versus time and against population predictions (PRED), in addition to comparisons between observed data and both PRED and individual predictions. […] The variability in the final model predictions was analysed using the median and 95% confidence intervals from 2000 bootstrap replicates. We identified significant covariates influencing pharmacokinetic (PK) parameters through a process of stepwise forward selection and backward elimination, with inclusion thresholds of p < 0.01 (ΔOFV < −6.635) and exclusion thresholds of p < 0.001 (ΔOFV > 10.83) for single degree-of-freedom tests. Covariates were assessed for both their statistical and clinical relevance, taking into account demographic factors (such as gender, age, weight, height, body mass index, and body surface area) and biochemical markers (including serum protein, albumin, creatinine, and cystatin C levels). […] We utilised Perl-speaks-NONMEM (PSN, version 5.3.1, [https://uupharmacometrics.github.io/PsN], accessed on 13 April 2023) for covariate identification, VPC execution, and nonparametric bootstrapping to evaluate model robustness. Data analysis and graphical outputs were conducted using the R programming environment (version 4.4.0, [www.rproject.org], Vienna, Austria, accessed on 6 June 2024).
[2] = cited from earlier work; for average AUC: critically ill patients, daily dose 30 mg/kg
Remark: listed apart in the source
[3] = final model, 2000 bootstrap replicates
[4] = final model, Q = θ5 × (WT/69.45)^θ6
[5] = final model, V2 = θ7 × (BSA/1.80)^θ8
[6] = healthy adults n = 12, 1 g i.v. over 2 h, plasma, NCA, mean (CV%)
[7] = healthy adults n = 12, 1 g i.v. over 2 h, plasma, NCA, median (IQR)

Compound: CN[C@H](CC(C)C)C(=O)N[C@H]1C(=O)N[C@@H](CC(N)=O)C(=O)N[C@H]2C(=O)N[C@H]3C(=O)N[C@H](C(=O)N[C@H](C(=O)O)c4cc(O)cc(O)c4-c4cc3ccc4O)[C@H](O)c3ccc(c(Cl)c3)Oc3cc2cc(c3O[C@@H]2O[C@H](CO)[C@@H](O)[C@H](O)[C@H]2O[C@H]2C[C@](C)(N)[C@H](O)[C@H](C)O2)Oc2ccc(cc2Cl)[C@H]1O [vancomycin]
- clearance rate per kg ([1]; final model typical CL 8.83 L/h expressed per kg, healthy adults with normal renal function): 2.12 mL/min/kg
- θ1, typical total clearance CL, Bootstrap Median (95% CI) [1, 3]: 8.78 (8.14–9.6) L/h
- θ4, central volume of distribution V1, Bootstrap Median (95% CI) [1, 3]: 12.8 (3.94–19.6) L
- θ5, intercompartmental clearance Q, Bootstrap Median (95% CI) [1, 3]: 20.4 (16.8–28.2) L/h
- θ6, exponent of weight on Q, Bootstrap Median (95% CI) [1, 3]: 2.31 (1.36–3.35)
- θ7, peripheral volume of distribution V2, Bootstrap Median (95% CI) [1, 3]: 27.8 (25.0–31.0) L
- θ8, exponent of BSA on V2, Bootstrap Median (95% CI) [1, 3]: 3.13 (1.79–3.73)
- θ1, typical total clearance CL, Estimates ([1]; final model, CL = θ1 × (WT/69.45)^θ2 × (AGE/38.5)^θ3, 12 healthy adults): 8.83 L/h
- θ5, intercompartmental clearance Q, Estimates [1, 4]: 20.2 L/h
- θ6, exponent of weight on Q, Estimates [1, 4]: 2.38
- θ4, central volume of distribution V1, Estimates ([1]; final model, V1 = θ4): 12.9 L
- θ7, peripheral volume of distribution V2, Estimates [1, 5]: 27.4 L
- θ8, exponent of BSA on V2, Estimates [1, 5]: 3.09
- VC, Mean (CV%) ([1]; individual parameters from population PK, central volume of distribution, n = 12, mean (CV%)): 0.211 (48.0) L/kg
- VC, Median (IQR) ([1]; individual parameters from population PK, central volume of distribution, n = 12, median (IQR)): 0.163 (0.144–0.251) L/kg
- t1/2α, Mean (CV%) ([1]; individual parameters from population PK, distribution phase half-life, n = 12, mean (CV%)): 0.270 (42.7) h
- AUCtau, Mean (CV%) ([1]; individual parameters from population PK, dose/CL, 1 g, n = 12, mean (CV%)): 113 (28.9) mg·h/L
- AUCtau, Median (IQR) ([1]; individual parameters from population PK, dose/CL, 1 g, n = 12, median (IQR)): 111 (81.9–137) mg·h/L
- t1/2β, Mean (CV%) ([1]; individual parameters from population PK, elimination phase half-life, n = 12, mean (CV%)): 3.88 (12.5) h
- Vss, Mean (CV%) ([1]; individual parameters from population PK, steady-state volume of distribution, n = 12, mean (CV%)): 0.611 (16.5) L/kg
- Vss, Median (IQR) ([1]; individual parameters from population PK, steady-state volume of distribution, n = 12, median (IQR)): 0.593 (0.565–0.650) L/kg
- CL, Mean (CV%) ([1]; individual parameters from population PK, total clearance, healthy adults n = 12, 1 g i.v. over 2 h, mean (CV%)): 0.135 (17.0) L/h/kg
- CL, Median (IQR) ([1]; individual parameters from population PK, total clearance, healthy adults n = 12, median (IQR)): 0.131 (0.117–0.144) L/h/kg
- Q, Estimates ([1]; two-compartment base model): 17.8 L/h
- vancomycin clearance ([2]; ICU patients, CLCR 130 mL/min): 6.20 L/h
- vancomycin clearance ([2]; ICU patients, CLCR 180 mL/min): 8.61 L/h
- vancomycin clearance ([2]; critically ill ARC patients, average CLCR 180.8 mL/min): 9.7 L/h
- vancomycin clearance ([2]; critically ill non-ARC patients, average CLCR 103.4 mL/min): 6.5 L/h
- average AUC ([2]; 139 patients with augmented renal clearance (ARC)): 232.9 µg·h/mL
- average AUC ([2]; 141 patients without ARC): 316.2 µg·h/mL
- vancomycin clearance ([2]; patients with ARC): 5.55 L/h
- vancomycin clearance ([2]; patients with non-ARC): 4.04 L/h
- vancomycin clearance ([2]; patients with thermal or inhalation injuries, TBSA burns 10–19%): 8.2 L/h
- vancomycin clearance ([2]; patients with thermal or inhalation injuries, TBSA burns 20–29%): 8.9 L/h
- vancomycin clearance ([2]; patients with thermal or inhalation injuries, TBSA burns < 10%): 6.9 L/h
- Cmax, Mean (CV%) (healthy Korean adults n = 12, single 1 g i.v. infusion over 2 h, plasma, LC-MS/MS, NCA, mean (CV%)): 23.4 (34.4) mg/L
- Cmax, Median (IQR) (healthy Korean adults n = 12, single 1 g i.v. infusion over 2 h, plasma, LC-MS/MS, NCA, median (IQR)): 20.8 (17.0–27.1) mg/L
- AUCinf, Mean (CV%) [6]: 106 (30.5) mg·h/L
- AUClast, Mean (CV%) [6]: 78.7 (28.2) mg·h/L
- AUMCinf, Mean (CV%) [6]: 667 (40.0) mg·h^2/L
- AUMClast, Mean (CV%) [6]: 289 (26.7) mg·h^2/L
- MRTinf, Mean (CV%) [6]: 5.12 (18.9) h
- AUCinf, Median (IQR) [7]: 97.1 (76.1–140) mg·h/L
- AUClast, Median (IQR) [7]: 73.6 (58.5–90.4) mg·h/L
- AUMCinf, Median (IQR) [7]: 587 (464–807) mg·h^2/L
- AUMClast, Median (IQR) [7]: 279 (217–341) mg·h^2/L
- MRTinf, Median (IQR) [7]: 4.98 (4.46–5.60) h
- VssNCA, Mean (CV%) (steady-state Vd by NCA, healthy adults n = 12, 1 g i.v. over 2 h, mean (CV%)): 0.730 (15.7) L/kg
- VssNCA, Median (IQR) (steady-state Vd by NCA, healthy adults n = 12, 1 g i.v. over 2 h, median (IQR)): 0.714 (0.650–0.802) L/kg
- t1/2λz, Mean (CV%) (terminal elimination half-life, NCA, healthy adults n = 12, 1 g i.v. over 2 h, mean (CV%)): 3.87 (21.3) h
- t1/2λz, Median (IQR) (terminal elimination half-life, NCA, healthy adults n = 12, 1 g i.v. over 2 h, median (IQR)): 3.58 (3.34–4.25) h
- CLNCA, Mean (CV%) (total body clearance by NCA, healthy adults n = 12, 1 g i.v. over 2 h, mean (CV%)): 0.146 (19.8) L/h/kg
- CLNCA, Median (IQR) (total body clearance by NCA, healthy adults n = 12, 1 g i.v. over 2 h, median (IQR)): 0.135 (0.128–0.160) L/h/kg
- VzZNCA, Mean (CV%) (volume of distribution by NCA, healthy adults n = 12, 1 g i.v. over 2 h, mean (CV%)): 0.793 (15.4) L/kg
- VzZNCA, Median (IQR) (volume of distribution by NCA, healthy adults n = 12, 1 g i.v. over 2 h, median (IQR)): 0.806 (0.701–0.873) L/kg

Compound: C[C@@H](O)[C@H]1C(=O)N2C(C(=O)O)=C(S[C@@H]3CN[C@H](C(=O)N(C)C)C3)[C@H](C)[C@H]12 [meropenem]
- V1, Estimates ([1]; in vivo): 15.1 L
- V2, Estimates ([1]; in vivo): 26.2 L
